Results on 7 compounds are retold here after ChEMBL document CHEMBL3580611, “Design, Synthesis, and Pharmacological Evaluation of Fused β-Homophenylalanine Derivatives as Potent DPP-4 Inhibitors” (ACS Med Chem Lett, 2015).

The nature of series [1]: AUC (0 to infinity) in male Sprague-Dawley rat at 5 mg/kg, iv. It is filed as ADME, organism-based. More on the design: dose 5 mg/kg, time infinity, route intravenous. Conditions: in vivo.
The test system of series [2] is Mus musculus. As to the kind of experiment: Anti-diabetic effect in ICR mouse assessed as plasma glucose lowering effect at 10 mg/kg, po treated 1 hr before 2.5 g/kg, po glucose load by Oral glucose tolerance test relative to control.
Series [3] can be described thus: AUC (0 to infinity) in male Sprague-Dawley rat at 10 mg/kg, po. The format is ADME, organism-based. More on the design: dose 10 mg/kg, route oral, time infinity. The settings on record: in vivo.
The test system of series [4] is Mus musculus. Briefly: Anti-diabetic effect in ICR mouse assessed as plasma glucose lowering effect at 10 mg/kg, po treated 8 hrs before 2.5 g/kg, po glucose load measured after 8 hrs by Oral glucose tolerance test relative to control.
Series [5] is described as follows: Tmax in male Sprague-Dawley rat at 10 mg/kg, po. The format is ADME, organism-based. Conditions: in vivo.
Series [6] can be described thus: Cmax in male Sprague-Dawley rat at 5 mg/kg, iv. It is filed as ADME, organism-based. More on the design: dose 5 mg/kg, route intravenous. The settings on record: in vivo.
Series [7] in a line: Elimination half life in male Sprague-Dawley rat at 5 mg/kg, iv. The format is ADME, organism-based. Conditions: in vivo, read-out: beta t1/2 (converted).
Another series concerns Rattus norvegicus. Briefly: Volume of distribution at steady state in male Sprague-Dawley rat at 10 mg/kg, po. The format is ADME, organism-based. Conditions: in vivo.
Series [8] in a line: Cmax in male Sprague-Dawley rat at 10 mg/kg, po. The format is ADME, organism-based. More on the design: dose 10 mg/kg, route oral. The settings on record: in vivo.
A short description of series [9]: Plasma clearance in male Sprague-Dawley rat at 10 mg/kg, po. It is filed as ADME, organism-based.
For a further series, the target named is Dipeptidyl peptidase 9 (Homo sapiens, UniProt Q86TI2). As to the kind of experiment: Inhibition of human recombinant DPP9 using H-Gly-Pro-AMC substrate after 10 mins by fluorescence assay.
Series [10] is described as follows: Elimination half life in rat liver microsomes. The format is ADME. Conditions: read-out: beta t1/2. (Liver microsomes are vesicles of endoplasmic reticulum, rich in cytochrome P450 enzymes.)
Another series has as its target Dipeptidyl peptidase 8 (Homo sapiens, UniProt Q6V1X1). Briefly: Inhibition of human recombinant DPP8 using H-Gly-Pro-AMC substrate after 10 mins by fluorescence assay.
Series [11] can be described thus: Oral bioavailability in male Sprague-Dawley rat at 10 mg/kg. It is filed as ADME, organism-based. The settings on record: in vivo.
Series [12] is described as follows: Elimination half life in male Sprague-Dawley rat at 10 mg/kg, po. The settings on record: in vivo, read-out: beta t1/2 (converted). It is filed as ADME, organism-based.
The target in series [13] is Voltage-gated inwardly rectifying potassium channel KCNH2 (Homo sapiens, UniProt Q12809). As to the kind of experiment: Inhibition of human ERG channel.
Series [14] is described as follows: Volume of distribution at steady state in male Sprague-Dawley rat at 5 mg/kg, iv. The format is ADME, organism-based. Conditions: in vivo, read-out: Vdss.
Series [15] in a line: Plasma clearance in male Sprague-Dawley rat at 5 mg/kg, iv. The format is ADME, organism-based.
A short description of series [16]: Metabolic stability in rat liver microsome assessed as turnover after 84 mins. The format is ADME. The settings on record: liver microsomes, read-out: Drug metabolism.

A value given as a limit tells only on which side of the number the result lay.

Dipeptidyl peptidase 9, sequence (Q86TI2 whole entry): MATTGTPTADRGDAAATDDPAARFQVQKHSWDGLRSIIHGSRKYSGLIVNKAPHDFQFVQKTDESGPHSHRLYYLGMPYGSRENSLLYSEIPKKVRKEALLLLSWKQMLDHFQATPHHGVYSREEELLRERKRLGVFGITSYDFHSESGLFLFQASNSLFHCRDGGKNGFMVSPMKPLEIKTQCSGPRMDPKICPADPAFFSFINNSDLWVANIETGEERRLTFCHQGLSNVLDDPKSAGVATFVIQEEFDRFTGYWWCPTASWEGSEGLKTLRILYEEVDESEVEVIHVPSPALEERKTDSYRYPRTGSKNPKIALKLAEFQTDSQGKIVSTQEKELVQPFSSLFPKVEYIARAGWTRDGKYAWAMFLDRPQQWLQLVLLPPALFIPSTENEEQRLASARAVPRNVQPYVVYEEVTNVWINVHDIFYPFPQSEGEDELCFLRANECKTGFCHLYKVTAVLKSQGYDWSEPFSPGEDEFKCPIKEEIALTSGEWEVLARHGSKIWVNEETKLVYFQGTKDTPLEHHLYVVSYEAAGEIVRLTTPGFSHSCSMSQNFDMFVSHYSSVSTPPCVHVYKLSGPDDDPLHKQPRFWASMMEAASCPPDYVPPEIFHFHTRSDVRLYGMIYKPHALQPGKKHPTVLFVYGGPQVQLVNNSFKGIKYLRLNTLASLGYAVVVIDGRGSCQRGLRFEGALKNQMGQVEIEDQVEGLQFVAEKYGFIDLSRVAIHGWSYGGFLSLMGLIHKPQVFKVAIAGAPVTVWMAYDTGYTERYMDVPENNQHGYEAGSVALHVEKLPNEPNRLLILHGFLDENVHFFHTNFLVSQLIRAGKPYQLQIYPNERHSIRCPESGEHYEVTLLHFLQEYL
Dipeptidyl peptidase 8, sequence (Q6V1X1 whole entry): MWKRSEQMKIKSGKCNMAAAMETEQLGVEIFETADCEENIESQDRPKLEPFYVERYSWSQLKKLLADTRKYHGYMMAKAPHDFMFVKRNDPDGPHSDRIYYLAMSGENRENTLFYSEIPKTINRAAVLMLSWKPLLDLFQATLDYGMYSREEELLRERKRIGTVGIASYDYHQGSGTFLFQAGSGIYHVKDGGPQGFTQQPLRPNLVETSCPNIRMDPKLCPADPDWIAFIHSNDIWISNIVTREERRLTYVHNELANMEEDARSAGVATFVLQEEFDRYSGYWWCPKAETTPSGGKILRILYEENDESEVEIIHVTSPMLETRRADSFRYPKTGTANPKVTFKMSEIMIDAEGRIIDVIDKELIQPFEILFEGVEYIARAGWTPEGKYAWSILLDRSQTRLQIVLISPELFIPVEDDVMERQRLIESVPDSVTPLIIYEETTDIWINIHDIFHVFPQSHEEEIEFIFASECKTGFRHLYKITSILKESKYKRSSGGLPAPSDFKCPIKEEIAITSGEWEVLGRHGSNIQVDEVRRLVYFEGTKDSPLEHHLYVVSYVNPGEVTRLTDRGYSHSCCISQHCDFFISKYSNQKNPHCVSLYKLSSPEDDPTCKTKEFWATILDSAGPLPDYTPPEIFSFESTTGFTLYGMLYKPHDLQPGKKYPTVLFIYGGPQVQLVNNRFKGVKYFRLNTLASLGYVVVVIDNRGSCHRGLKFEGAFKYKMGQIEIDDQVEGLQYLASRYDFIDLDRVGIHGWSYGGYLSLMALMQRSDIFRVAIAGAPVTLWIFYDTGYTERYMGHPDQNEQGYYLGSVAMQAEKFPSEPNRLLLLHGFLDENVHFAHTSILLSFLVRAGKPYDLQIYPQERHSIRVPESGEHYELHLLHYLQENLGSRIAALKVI
Voltage-gated inwardly rectifying potassium channel KCNH2, sequence (Q12809 whole entry): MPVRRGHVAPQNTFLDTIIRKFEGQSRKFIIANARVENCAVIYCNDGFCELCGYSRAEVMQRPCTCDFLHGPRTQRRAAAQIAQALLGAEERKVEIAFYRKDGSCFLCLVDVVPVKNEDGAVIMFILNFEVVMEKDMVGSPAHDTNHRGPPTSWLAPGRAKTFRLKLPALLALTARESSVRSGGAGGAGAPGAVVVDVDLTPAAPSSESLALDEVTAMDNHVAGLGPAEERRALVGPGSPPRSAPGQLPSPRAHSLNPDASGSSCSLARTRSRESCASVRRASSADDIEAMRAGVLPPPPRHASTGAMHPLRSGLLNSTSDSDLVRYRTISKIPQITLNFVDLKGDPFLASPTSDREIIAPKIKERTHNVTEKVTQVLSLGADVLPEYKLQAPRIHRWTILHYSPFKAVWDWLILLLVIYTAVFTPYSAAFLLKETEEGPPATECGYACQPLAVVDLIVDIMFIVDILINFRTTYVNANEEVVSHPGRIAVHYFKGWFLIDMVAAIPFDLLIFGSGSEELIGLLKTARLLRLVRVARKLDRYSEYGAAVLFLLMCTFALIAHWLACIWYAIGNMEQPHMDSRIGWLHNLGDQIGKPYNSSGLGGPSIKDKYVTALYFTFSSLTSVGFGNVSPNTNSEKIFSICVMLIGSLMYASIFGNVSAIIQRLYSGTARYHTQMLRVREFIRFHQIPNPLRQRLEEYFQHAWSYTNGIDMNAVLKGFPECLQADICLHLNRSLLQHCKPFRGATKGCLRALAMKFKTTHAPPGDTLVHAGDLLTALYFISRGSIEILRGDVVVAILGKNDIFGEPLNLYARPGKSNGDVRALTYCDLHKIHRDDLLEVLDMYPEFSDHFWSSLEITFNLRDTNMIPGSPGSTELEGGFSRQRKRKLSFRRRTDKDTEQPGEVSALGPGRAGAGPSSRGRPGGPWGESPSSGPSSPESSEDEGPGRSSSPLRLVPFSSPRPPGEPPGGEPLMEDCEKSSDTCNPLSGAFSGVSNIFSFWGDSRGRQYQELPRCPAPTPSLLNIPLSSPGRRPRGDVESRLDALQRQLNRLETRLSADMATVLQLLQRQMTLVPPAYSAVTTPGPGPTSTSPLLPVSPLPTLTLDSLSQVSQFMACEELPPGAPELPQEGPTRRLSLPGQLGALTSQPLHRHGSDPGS

By AUC(0-inf) is commonly meant total exposure, with the tail of the curve extrapolated. What is called Tmax is the time from dosing to the highest level. In general, Cmax refers to the peak of the concentration-time curve. For orientation: CL/F means clearance divided by bioavailability, as obtained after extravascular dosing. Usually IC50 stands for the concentration at which inhibition is half-maximal. By bioavailability is commonly meant the share of a dose that reaches the circulation, judged against a reference dose that is usually intravenous. A high value points to good availability. The clearance is a measure of how efficiently the substance is removed, as volume per time. Turning to `N[C@@H](CC(=O)N1CCn2c(nnc2C(F)(F)F)C1)[C@H]1CCc2cc(F)c(F)cc21`, the figures for the AUC(0-inf) in [1] and in series [3] were 2270 ng·h/mL and 2850 ng·h/mL, respectively. Also, the entries for the “inhibition (INH)” value with Mus musculus [2] and in the series with Mus musculus [4] were 57% and 24%, respectively. In addition, the Tmax in [5] was found to be 0.55 h. Moreover, the Cmax in series [6] amounted to 1490 ng/mL; in series [8] it was 466 ng/mL. The half-life in series [7] is 4.39 h; in [10] it was 5.88 h; in series [12], 5.11 h. In the series on Rattus norvegicus, the Vdss came out at 25.792 L/kg. The CL/F in [9] was 59.1 mL/min/kg. Besides, the IC50 at Dipeptidyl peptidase 9 is above 10 µM; at Dipeptidyl peptidase 8 it was above 10 µM; in [13] it was above 20 µM. In addition, the bioavailability in series [11] came out at 61%. Further, the Vd in series [14] is 14.2 L/kg. In [15], this compound had a clearance of 37 mL/min/kg.

`N[C@@H](CC(=O)N1CC(=O)Nc2ccccc2C1)[C@H]1CCc2cc(F)c(F)cc21`: the “inhibition (INH)” value in the series on Mus musculus [2] amounted to 34%; in the series on Mus musculus [4] it was 35%. Further, the IC50 at Dipeptidyl peptidase 9 is above 10 µM; at Dipeptidyl peptidase 8 it was above 10 µM; in [13] it was above 20 µM. For the same compound, in series [10], the half-life stood at 1.4 h. Moreover, the metabolised at 1.4 h in series [16] was 50%.

As to `N[C@@H](CC(=O)N1CC(=O)Nc2cc(F)ccc2C1)[C@H]1CCc2cc(F)c(F)cc21`, the half-life in [10] was determined as 1.85 h.

Consider `N[C@@H](CC(=O)N1CC(=O)Nc2cc(F)c(F)cc2C1)[C@H]1CCc2cc(F)c(F)cc21`, for which the IC50 at Dipeptidyl peptidase 9 and at Dipeptidyl peptidase 8 was above 10 µM throughout.

Turning to `CN1C(=O)CN(C(=O)C[C@H](N)[C@H]2CCc3cc(F)c(F)cc32)Cc2ccccc21`, the “inhibition (INH)” value turned out to be 29% with Mus musculus [2] and 38% in the series with Mus musculus [4]. In addition, the IC50 at Dipeptidyl peptidase 9 and on Dipeptidyl peptidase 8 was above 10 µM throughout.

On to `CN1C(=O)CN(C(=O)C[C@H](N)[C@H]2CCc3cc(F)c(F)cc32)Cc2ccc(F)cc21`, for which the “inhibition (INH)” value in the series with Mus musculus [2] is listed as 48%; with Mus musculus [4], 30%. In addition, the IC50 on Dipeptidyl peptidase 9 and on Dipeptidyl peptidase 8 was above 10 µM each time.

Turning to `N[C@@H](CC(=O)N1CCn2c(nnc2C(F)(F)F)C1)Cc1cc(F)c(F)cc1F` [SITAGLIPTIN], the figures for the “inhibition (INH)” value in the series with Mus musculus [2] and in the series with Mus musculus [4] were 40% and 24%, respectively.
